Legend:
Format in all cases: biochemical
bovine thrombin [1] = target: T1, bovine thrombin (Bos taurus, UniProt P00735); assay: Antithrombin activity: inhibition of fibrin formation from fibrinogen
Description: (i) Determination of inhibition activity against fibrin formation
An inhibitor sample is dissolved in a 0.l8 M borate-physiological salt buffer solution (pH = 7.4) to bring the total volume to 500 µl. To this solution, 400 µl of a 0.2% bovine fibrinogen solution and l00 µl of a 4 unit/ml bovine thrombin solution are added at a temperature of 37°C in a constant temperature bath. Thus, a coagulation time is determined. The inhibitor concentration I₅₀ (µmol), at which the coagulation time obtained in the absence of the inhibitor is extended twice, is determined.

human plasmin [2] = target: T2, human plasmin (Homo sapiens, UniProt P00747); assay: Antiplasmin activity: inhibition of S-2251 decomposition; conditions: Table 2; substrate S-2251, pH 7.4, 37°C; read-out: Plasmin S-2251 (concentration I₅₀)
Description: (ii) Determination of inhibition activity on S-225l decomposition
An inhibitor sample is dissolved in a 0.05 M Tris-hydrochloric acid buffer solution (pH = 7.4) to bring the total volume to 400 µl. To this solution, 50 µl of a 3 mM S-225l solution is added and the mixture is incubated at a temperature of 37°C for 5 minutes in a constant temperature bath. Then 50 µl of a 0.2 casein unit/ml human plasmin is added and the mixture is incubated at a temperature of 37°C for 4 minutes. Thereafter, the reaction is stopped by adding 50 µl of 50% acetic acid.
Thus, the concentration I₅₀ (µmol) of the inhibitor sample, at which the absorbance is one half (i.e., l/2) of that obtained in the absence of the inhibitor, is determined.

bovine thrombin [3] = target: T1, bovine thrombin; assay: Antithrombin activity: inhibition of S-2238 decomposition
Description: (ii) Determination of inhibition activity on S-2238 decomposition
An inhibitor sample is dissolved in a 0.05 M Tris-hydrochloric acid buffer solution (pH = 8.3) to bring the a total volume to 400 µl. To this solution, 50 µl of a 0.2 mM S-2238 solution is added and the mixture is incubated at a temperature of 37°C for 5 minutes in a constant temperature bath. Then 50 µl of a 0.2 unit/ml bovine thrombin solution is added thereto and the absorbance, at 405 nm, of the p-nitroaniline formed per minute is determined at a temperature of 37°C by using the so-called initial velocity method. Thus, the concentration I₅₀ (µmol) of the inhibitor sample, at which the absorbance is one half (i.e., l/2) of that obtained in the absence of the inhibitor sample, is determined.

human plasmin [4] = target: T2, human plasmin; assay: Antiplasmin activity: inhibition of fibrin decomposition; conditions: Table 2; concentration at which fibrin dissolution time is extended twice, pH 7.4, 37°C; read-out: Plasmin Fibrin (concentration I₅₀)
Description: (i) Determination of inhibition activity on fibrin decomposition
An inhibitor sample is dissolved in a 0.l8 M borate-physiological salt buffer solution (pH = 7.4) to bring the total volume to 600 µl. To this buffer solution, 200 µl of a 0.2% bovine fibrinogen, l00 µl of a 0.3 casein unit/ml human plasmin solution, and l00 µl of a 50 unit/ml bovine thrombin solution, all dissolved in the above-mentioned buffer, are added at a temperature of 37°C in a constant temperature bath. The dissolution time of the fibrin mass formed above is then determined.

bovine trypsin = target: T3, bovine trypsin (Bos taurus, UniProt P00760); assay: Antitrypsin activity: inhibition of S-2238 decomposition; conditions: Table 2; substrate S-2238, pH 8.1, 37°C; read-out: Trypsin S-2238 (concentration I₅₀)
T3 sequence (P00760 24-246): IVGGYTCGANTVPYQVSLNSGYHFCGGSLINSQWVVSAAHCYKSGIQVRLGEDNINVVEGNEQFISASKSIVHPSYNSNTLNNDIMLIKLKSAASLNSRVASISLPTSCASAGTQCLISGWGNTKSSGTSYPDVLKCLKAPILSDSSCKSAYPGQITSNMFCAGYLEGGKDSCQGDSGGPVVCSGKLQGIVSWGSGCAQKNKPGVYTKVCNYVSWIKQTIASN
Description: Determination of inhibition activity against S-2238 decomposition An inhibitor sample is dissolved in a 0.05 M Tris-imidazole buffer solution (pH = 8.l) and l25 µl of a l mM S-2238 solution is added to bring the total volume to l.20 ml. The mixture is incubated at a temperature of 37°C for 5 minutes in a constant temperature bath. To this mixture, 0.05 ml of bovine trypsin is added and the absorbance, at 405 nm, of the p-nitroaniline formed per minute is determined at a temperature of 37°C by using the so-called initial velocity method. Thus, the concentration I₅₀ (µmol) of the inhibitor sample, at which the absorbance is one half (i.e., l/2) of that obtained in the absence of the inhibitor sample, is determined.

human urokinase = human urokinase (Homo sapiens, UniProt P00749); assay: Antiurokinase activity: inhibition of S-2444 decomposition; conditions: Table 2; substrate S-2444, pH 8.8, 37°C; read-out: Urokinase S-2444 (concentration I₅₀)
Description: Determination of inhibition activity for S-2444 decomposition
An inhibitor sample is dissolved in a 0.05 M Tris-hydrochloric acid buffer solution (pH = 8.8) to bring the total volume to 400 µl. To this solution, 50 µl of a l mM S-2444 solution is added and the mixture is incubated at a temperature of 37°C for 5 minutes in a constant temperature bath. Then 50 µl of a 500 unit/ml human urokinase is added and the mixture is incubated at a temperature of 37°C for 5 minutes. Thereafter, 50 µl of 50% acetic acid is added to terminate the reaction. The absorbance of the p-nitroaniline formed in the reaction mixture is measured at 405 nm. Thus, the concentration I₅₀ (µmol) of the inhibitor sample, at which the absorbance is one half (i.e., l/2) of that obtained in the absence of the inhibitor sample, is determined.

human plasma kallikrein = human plasma kallikrein (Homo sapiens, UniProt P03952); assay: Anti-plasma kallikrein activity: inhibition of S-2302 decomposition; conditions: Table 2; substrate S-2302, pH 7.8, 37°C; read-out: Plasma Kallikrein S-2302 (concentration I₅₀)
Description: An inhibitor sample is dissolved in a 0.05 M Tris-hydrochloric acid buffer solution (pH = 7.8) to bring the total volume to 400 µl. […] Then, 50 µl of a 0.l2 unit/ml human plasma kallikrein is added and the mixture is incubated at a temperature of 37°C for 5 minutes. Thereafter, 50 µl of 50% acetic acid is added to terminate the reaction. […] Thus, the concentration I₅₀ (µmol) of the inhibitor sample, at which the absorbance is one half (i.e., l/2) of that obtained in the absence of the inhibitor sample, is determined.

Sequence of human plasma kallikrein (P03952 391-638 limits assumed): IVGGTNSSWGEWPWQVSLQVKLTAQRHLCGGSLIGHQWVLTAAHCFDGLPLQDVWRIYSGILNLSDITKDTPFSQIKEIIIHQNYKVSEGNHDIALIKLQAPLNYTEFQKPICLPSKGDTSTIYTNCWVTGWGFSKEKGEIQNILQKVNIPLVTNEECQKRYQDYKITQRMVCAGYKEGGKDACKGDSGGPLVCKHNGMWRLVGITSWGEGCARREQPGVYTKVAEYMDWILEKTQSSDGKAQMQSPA
Sequence of human plasma kallikrein (P03952 20-390 partner limits assumed): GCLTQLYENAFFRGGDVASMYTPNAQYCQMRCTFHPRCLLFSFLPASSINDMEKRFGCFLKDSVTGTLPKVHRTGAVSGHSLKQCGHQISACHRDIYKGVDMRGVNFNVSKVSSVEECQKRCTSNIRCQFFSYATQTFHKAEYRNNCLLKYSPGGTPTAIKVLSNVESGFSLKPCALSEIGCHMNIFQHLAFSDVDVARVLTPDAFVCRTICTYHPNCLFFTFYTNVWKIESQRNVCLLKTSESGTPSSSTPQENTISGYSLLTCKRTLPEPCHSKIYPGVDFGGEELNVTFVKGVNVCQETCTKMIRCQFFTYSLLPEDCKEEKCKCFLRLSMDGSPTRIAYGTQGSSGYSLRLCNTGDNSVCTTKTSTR
T2 sequence (P00747 581-810 limits assumed): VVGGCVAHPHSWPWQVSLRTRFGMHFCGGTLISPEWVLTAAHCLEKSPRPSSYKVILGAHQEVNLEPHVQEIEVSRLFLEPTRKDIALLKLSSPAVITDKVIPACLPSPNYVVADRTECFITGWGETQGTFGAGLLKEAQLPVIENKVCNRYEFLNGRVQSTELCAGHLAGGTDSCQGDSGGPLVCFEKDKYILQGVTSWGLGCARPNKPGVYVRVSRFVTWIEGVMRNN
T2 sequence (P00747 97-580 partner limits assumed): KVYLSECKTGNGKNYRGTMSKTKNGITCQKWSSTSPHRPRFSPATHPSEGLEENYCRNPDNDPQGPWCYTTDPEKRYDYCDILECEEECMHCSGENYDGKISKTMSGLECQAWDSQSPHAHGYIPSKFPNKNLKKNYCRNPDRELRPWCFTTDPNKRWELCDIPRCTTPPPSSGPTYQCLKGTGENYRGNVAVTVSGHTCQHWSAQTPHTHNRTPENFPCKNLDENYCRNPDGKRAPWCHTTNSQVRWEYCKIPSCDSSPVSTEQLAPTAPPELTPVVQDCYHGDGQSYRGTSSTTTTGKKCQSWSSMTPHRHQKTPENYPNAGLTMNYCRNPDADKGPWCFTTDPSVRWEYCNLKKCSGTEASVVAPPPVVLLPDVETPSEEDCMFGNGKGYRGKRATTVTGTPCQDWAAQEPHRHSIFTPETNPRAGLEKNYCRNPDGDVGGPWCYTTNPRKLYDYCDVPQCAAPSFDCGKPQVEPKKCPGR

Structure (SMILES) | IC50 (bovine thrombin [1]) [µM] | IC50 (human plasmin [2]) [µM] | IC50 (bovine thrombin [3]) [µM] | IC50 (human plasmin [4]) [µM] | IC50 (bovine trypsin) [µM] | IC50 (human urokinase) [µM] | IC50 (human plasma kallikrein) [µM]
NCCCCC(=O)N[C@@H](Cc1ccccc1)C(=O)Nc1ccc(C(=O)c2ccccc2)cc1 [Compound No. 2, N-(5-aminovaleryl)-L-phenylalanine 4-benzoylanilide] | > 100 | 120 | > 200 | > 100 | 75 |  | 
CCOC(=O)CC(O)CNC(=O)[C@H](Cc1ccccc1)NC(=O)CCCCCN (stereo partly drawn) [compound 5] | > 500 | > 500 | > 500 | > 500 |  | > 500 | > 500
COC(=O)[C@@H]1CCCN1C(=O)[C@H](Cc1ccccc1)NC(=O)c1ccc(NC(=N)N)cc1 [compound 22] | > 1000 | > 1000 | > 1000 | > 1000 |  | > 1000 | > 1000
CC(=O)c1ccc(NC(=O)[C@H](Cc2ccccc2)NC(=O)c2ccc(NC(=N)N)cc2)cc1 [compound 15] | > 500 | > 400 | 330 | > 200 | 14 | 190 | 2.2

— patent EP0298135A1, “Phenylalanine derivative and proteinase inhibitor” (Okamoto, Shosuke, priority 1987, dated 1989)
